Measurements as given in the supplement of paper PMC4862054.

Each compound was assayed on CAL-148 (assay: normalised response (% of control), CellTiter-Glo; higher = more viable cells (100 = DMSO, 0 = benzethonium chloride kill control)). Conditions: incubation time: 72 h.
Description: (§1)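 DSRT, 72 h incubation, CellTox Green / CellTiter-Glo readout. Signal is normalised to DMSO and benzethonium chloride controls. Value is the normalised response at dose 3.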
Compound `Cc1sc2c(c1C)C(c1ccc(Cl)cc1)=N[C@@H](CC(=O)OC(C)(C)C)c1nnc(C)n1-2` [(+)JQ1] (100 nM) has a normalised response of 117%. For `Oc1ncnc2[nH]ncc12` [Allopurinol] (100 nM), the normalised response was 104%. `CC1=C2C[C@H]3[C@@H](CC=C4C[C@@H](O)CC[C@@]43C)[C@@H]2CC[C@]12O[C@@H]1C[C@H](C)CN[C@H]1[C@H]2C` [Cyclopamine] (100 nM) gave a normalised response of 114%. Work on `CC(=O)N(O)CCCCCNC(=O)CCC(=O)N(O)CCCCCNC(=O)CCC(=O)N(O)CCCCCN` [Deferoxamine] (100 nM) yielded a normalised response of 88.7%. `C[C@]12CC[C@@H]3c4ccc(OC(=O)N(CCCl)CCCl)cc4CC[C@H]3[C@@H]1CC[C@@H]2O` [Estramustine] (100 nM) was tested, and the normalised response was 76.8%. `CC1(C)CNc2cc(NC(=O)c3cccnc3NCc3ccncc3)ccc21` [Motesanib] (100 nM) showed a normalised response of 86.2%. For `CC(=O)c1c(C)c2cnc(Nc3ccc(N4CCNCC4)cn3)nc2n(C2CCCC2)c1=O` [Palbociclib] (100 nM), the normalised response was 85.7%. In the case of `CC[C@@H]1C(=O)OC[C@@H]1Cc1cncn1C` [Pilocarpine] (400 nM), the normalised response is reported as 86%. For `COc1cc(F)c(F)c(Nc2ccc(I)cc2F)c1NS(=O)(=O)C1(C[C@H](O)CO)CC1` [Refametinib] (100 nM), the normalised response was 87.2%.

What follows are compounds tested on HCC1599 in the same assay as above. Conditions: incubation time: 72 h.
Description: as §1
Work on `Cc1sc2c(c1C)C(c1ccc(Cl)cc1)=N[C@@H](CC(=O)OC(C)(C)C)c1nnc(C)n1-2` [(+)JQ1] (100 nM) yielded a normalised response of 97.3%. With `Oc1ncnc2[nH]ncc12` [Allopurinol] (100 nM) the normalised response was 111%. Work on `CC1=C2C[C@H]3[C@@H](CC=C4C[C@@H](O)CC[C@@]43C)[C@@H]2CC[C@]12O[C@@H]1C[C@H](C)CN[C@H]1[C@H]2C` [Cyclopamine] (100 nM) yielded a normalised response of 100%. Compound `CC(=O)N(O)CCCCCNC(=O)CCC(=O)N(O)CCCCCNC(=O)CCC(=O)N(O)CCCCCN` [Deferoxamine] (100 nM) has a normalised response of 102%. Work on `C[C@]12CC[C@@H]3c4ccc(OC(=O)N(CCCl)CCCl)cc4CC[C@H]3[C@@H]1CC[C@@H]2O` [Estramustine] (100 nM) yielded a normalised response of 103%. With `CC1(C)CNc2cc(NC(=O)c3cccnc3NCc3ccncc3)ccc21` [Motesanib] (100 nM) the normalised response was 114%. Compound `CC(=O)c1c(C)c2cnc(Nc3ccc(N4CCNCC4)cn3)nc2n(C2CCCC2)c1=O` [Palbociclib] (100 nM) has a normalised response of 94.4%. `CC[C@@H]1C(=O)OC[C@@H]1Cc1cncn1C` [Pilocarpine] (400 nM) showed a normalised response of 85.9%. With `COc1cc(F)c(F)c(Nc2ccc(I)cc2F)c1NS(=O)(=O)C1(C[C@H](O)CO)CC1` [Refametinib] (100 nM) the normalised response was 99.6%.

Each compound was assayed on MDA-MB-468 in the same assay as above. Conditions: incubation time: 72 h.
Description: as §1
`Cc1sc2c(c1C)C(c1ccc(Cl)cc1)=N[C@@H](CC(=O)OC(C)(C)C)c1nnc(C)n1-2` [(+)JQ1] (100 nM) showed a normalised response of 89.3%. In the case of `Oc1ncnc2[nH]ncc12` [Allopurinol] (100 nM), the normalised response is reported as 107%. Work on `CC1=C2C[C@H]3[C@@H](CC=C4C[C@@H](O)CC[C@@]43C)[C@@H]2CC[C@]12O[C@@H]1C[C@H](C)CN[C@H]1[C@H]2C` [Cyclopamine] (100 nM) yielded a normalised response of 108%. `CC(=O)N(O)CCCCCNC(=O)CCC(=O)N(O)CCCCCNC(=O)CCC(=O)N(O)CCCCCN` [Deferoxamine] (100 nM) was tested, and the normalised response was 95.8%. With `C[C@]12CC[C@@H]3c4ccc(OC(=O)N(CCCl)CCCl)cc4CC[C@H]3[C@@H]1CC[C@@H]2O` [Estramustine] (100 nM) the normalised response was 95.2%. In the case of `CC1(C)CNc2cc(NC(=O)c3cccnc3NCc3ccncc3)ccc21` [Motesanib] (100 nM), the normalised response is reported as 91.8%. `CC(=O)c1c(C)c2cnc(Nc3ccc(N4CCNCC4)cn3)nc2n(C2CCCC2)c1=O` [Palbociclib] (100 nM) showed a normalised response of 85%. `CC[C@@H]1C(=O)OC[C@@H]1Cc1cncn1C` [Pilocarpine] (400 nM) was tested, and the normalised response was 95.3%. For `COc1cc(F)c(F)c(Nc2ccc(I)cc2F)c1NS(=O)(=O)C1(C[C@H](O)CO)CC1` [Refametinib] (100 nM), the normalised response was 82.2%.

The compounds below were run on HDQ-P1 in the same assay as above. Conditions: incubation time: 72 h.
Description: as §1
`Cc1sc2c(c1C)C(c1ccc(Cl)cc1)=N[C@@H](CC(=O)OC(C)(C)C)c1nnc(C)n1-2` [(+)JQ1] (100 nM) showed a normalised response of 89.5%. `Oc1ncnc2[nH]ncc12` [Allopurinol] (100 nM) was tested, and the normalised response was 101%. `CC1=C2C[C@H]3[C@@H](CC=C4C[C@@H](O)CC[C@@]43C)[C@@H]2CC[C@]12O[C@@H]1C[C@H](C)CN[C@H]1[C@H]2C` [Cyclopamine] (100 nM) gave a normalised response of 99.9%. Compound `CC(=O)N(O)CCCCCNC(=O)CCC(=O)N(O)CCCCCNC(=O)CCC(=O)N(O)CCCCCN` [Deferoxamine] (100 nM) has a normalised response of 101%. `C[C@]12CC[C@@H]3c4ccc(OC(=O)N(CCCl)CCCl)cc4CC[C@H]3[C@@H]1CC[C@@H]2O` [Estramustine] (100 nM) showed a normalised response of 102%. For `CC1(C)CNc2cc(NC(=O)c3cccnc3NCc3ccncc3)ccc21` [Motesanib] (100 nM), the normalised response was 99.5%. Work on `CC(=O)c1c(C)c2cnc(Nc3ccc(N4CCNCC4)cn3)nc2n(C2CCCC2)c1=O` [Palbociclib] (100 nM) yielded a normalised response of 103%. With `CC[C@@H]1C(=O)OC[C@@H]1Cc1cncn1C` [Pilocarpine] (400 nM) the normalised response was 98.3%. Work on `COc1cc(F)c(F)c(Nc2ccc(I)cc2F)c1NS(=O)(=O)C1(C[C@H](O)CO)CC1` [Refametinib] (100 nM) yielded a normalised response of 68.6%.

Each compound was assayed on MFM-223 in the same assay as above. Conditions: incubation time: 72 h.
Description: as §1
In the case of `Cc1sc2c(c1C)C(c1ccc(Cl)cc1)=N[C@@H](CC(=O)OC(C)(C)C)c1nnc(C)n1-2` [(+)JQ1] (100 nM), the normalised response is reported as 95%. `Oc1ncnc2[nH]ncc12` [Allopurinol] (100 nM) showed a normalised response of 109%. With `CC1=C2C[C@H]3[C@@H](CC=C4C[C@@H](O)CC[C@@]43C)[C@@H]2CC[C@]12O[C@@H]1C[C@H](C)CN[C@H]1[C@H]2C` [Cyclopamine] (100 nM) the normalised response was 109%. Compound `CC(=O)N(O)CCCCCNC(=O)CCC(=O)N(O)CCCCCNC(=O)CCC(=O)N(O)CCCCCN` [Deferoxamine] (100 nM) has a normalised response of 93.5%.
